Measured values taken from patent EP4810052A2, “HCRHR2 SELECTIVE POLYPEPTIDES” (Gubra A/S, priority 2023, dated 2026).
Starred links: 1 amine or outer side, 2 acyl side, 3 side chain; linkers in the order of their positions; H or OH if unused. Non-standard residues stand in square brackets, D forms with d. Residues, ends and D or L forms follow the SMILES beside them. Groups on a side chain read outwards from the residue. *: point of attachment. C20 diacid = O=C(O)CCCCCCCCCCCCCCCCCCC(=O)*; γGlu = O=C(O)[C@H](CCC(=O)[*:2])N[*:1]; NMeI = CC[C@H](C)[C@H](NC)C(=O)O; AEEA = NCCOCCOCC(=O)O; Aib = CC(C)(N)C(=O)O

Tests used:
hCRHR2 = target: T1, hCRHR2 (Homo sapiens, UniProt Q13324); test: HTRF cAMP assay, determination of hCRHR2 potency (peptide libraries 5 conc., purified peptides 11 conc.); type: cell-based; settings: for Selectivity ratio (hCRHR1/ hCRHR2): hCRHR1-EC50/hCRHR2-EC50; for EC50: purified peptides, CHO-K1 cells stably expressing hCRHR2, cAMP HTRF, read-out: hCRHR2 EC50
T1 sequence (Q13324 1-411): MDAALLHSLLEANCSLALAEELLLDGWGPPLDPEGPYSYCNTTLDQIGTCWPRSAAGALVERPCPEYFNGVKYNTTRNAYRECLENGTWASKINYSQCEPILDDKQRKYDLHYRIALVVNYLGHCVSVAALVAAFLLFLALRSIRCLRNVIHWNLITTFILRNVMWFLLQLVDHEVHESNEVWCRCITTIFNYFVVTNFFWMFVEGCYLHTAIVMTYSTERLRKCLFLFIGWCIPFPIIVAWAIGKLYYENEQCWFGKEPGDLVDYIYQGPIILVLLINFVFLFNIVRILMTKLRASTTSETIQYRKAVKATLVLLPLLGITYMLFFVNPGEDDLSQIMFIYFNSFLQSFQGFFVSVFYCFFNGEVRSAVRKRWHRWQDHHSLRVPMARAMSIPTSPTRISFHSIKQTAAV
In short: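 CHO-K1 cells stably expressing human CRHR2, thawed from frozen stocks just before use and run in suspension; cAMP measured by competitive HTRF immunoassay (cryptate anti-cAMP, d2-cAMP). Agonist peptides tested at 5 (libraries) or 11 (purified) concentrations; EC50 from sigmoid variable-slope nonlinear regression.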

hCRHR1 = target: T2, hCRHR1 (Homo sapiens, UniProt P34998); test: HTRF cAMP assay, determination of hCRHR1 potency (peptide libraries 5 conc., purified peptides 11 conc.); type: cell-based; settings: purified peptides; CHO-K1 cells stably expressing hCRHR1, cAMP HTRF; read-out: hCRHR1 EC50
T2 sequence (P34998 24-415): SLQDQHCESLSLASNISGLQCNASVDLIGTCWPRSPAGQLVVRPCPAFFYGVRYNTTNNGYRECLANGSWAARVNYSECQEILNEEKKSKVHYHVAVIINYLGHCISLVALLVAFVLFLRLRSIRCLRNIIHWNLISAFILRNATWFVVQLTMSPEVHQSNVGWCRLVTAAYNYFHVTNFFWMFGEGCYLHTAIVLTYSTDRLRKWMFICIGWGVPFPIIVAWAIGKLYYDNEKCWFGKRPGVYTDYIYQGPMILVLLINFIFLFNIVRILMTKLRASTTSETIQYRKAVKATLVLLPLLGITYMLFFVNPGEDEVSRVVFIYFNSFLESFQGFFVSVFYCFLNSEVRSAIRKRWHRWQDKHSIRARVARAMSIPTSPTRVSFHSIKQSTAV
In short: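 CHO-K1 cells stably expressing human CRHR1, thawed from frozen stocks just before use, were stimulated in suspension with agonist peptides. cAMP was measured by HTRF competitive immunoassay (cryptate anti-cAMP antibody vs d2-cAMP).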

[1] = Thioflavin T fibril formation assay of purified peptides; type: physicochemical; settings: pH 7.5, ThT assay
Method: Thioflavin T fibril formation assay: Peptides were dissolved as 267 µM in 50 mM phosphate buffer pH 7.5 for 2 h at room temperature on a rocking table. The samples were then divided into three replicates of 80 µl/well and mixed with 2 µl/well Thioflavin T (ThT)to a final concentration of 4 µM ThT in a black 384 well microplate with a clear bottom (Greiner #781096). The plate was inserted in a CLARIOstar Plus microplate reader (BMG Labtech) and fibril formation was measured as an increase in fluorescence emission at 480 nm (excitation at 450 nm) during 96 h at 40°C with cycles of 5 min rest and 5 min linearshaking at700 rpm.
Compounds were dissolved to 200 µM (ca 1.0 mg/ml) in 50 mM phosphate buffer with preparation and ThT assay performed as described in the "General procedure for determination of fibril formation of peptides." above. Furthermore, samples were adjusted to pH values as indicated below. Additional co-formulations of compounds with semaglutide were prepared by dissolving compounds to 200 µM in commercially available semaglutide drug product (Ozempic®); these co-formulations were adjusted to pH 7.4.

[2] = Chemical stability of purified peptides (RP-UHPLC main peak purity loss); type: physicochemical; settings: pH 7.5, 40°C; for Chemical stability at pH 7.5 after 14 days at 40°C (% degradation): first value of cell; for Chemical stability at pH 7.5 after 28 days at 40°C (% degradation): second value of cell
Method: Chemical stability was tested at a concentration of approximately of 1.0 mg/ml peptide in the following vehicles: 50 mM phosphate buffer pH 7.5. Dissolved samples were incubated for at least 2 h at room temperature on a rocking table. The main peak purity at time zero (T0) was determined using reversed phase chromatography. The samples were incubated at 40°C for 14 days (T14) and 28 days (T28). The samples were analyzed with reversed phase chromatography and size exclusion chromatography.
Reversed Phase chromatography was performed on a Thermo Dionex Ultimate UHPLC system with UV detection at 215 nm) and equipped with a Kinetex column (1.7 µm, C8, 100 Å, 150 x 2.1 mm (00F-4499-AN)). Analysis was performed by gradient elution with buffer A (0.1% TFA in 95:5 H2O:acetonitrile) and buffer B (0.1% TFA in 5:95 H2O: acetonitrile) at a column temperature of 50 °C (gradient used 25-55%B over 40 min. Flowrate was 0.5 mL/min. The main peak purity was determined from the integrated chromatogram as the area under the main peak relative to the total peak area. The purity loss was calculated as the difference between the T0 and T14 time point and/or as the difference between the T0 and T28 time point.
The chemical stability of selected peptides was evaluated at varying pH's at 40° C over 28 days. Samples were prepared and analysed as described in procedure with the addition of pH adjusting samples to the targets indicated below. As a comparator,r commercially available semaglutide drug product (Ozempic®, Novo Nordisk) was included in the sample set.

[3] = pH 7.5

| Selectivity ratio (hCRHR1/ hCRHR2) (hCRHR2) | EC50 (hCRHR2) | EC50 (hCRHR1) | Fibrillation (pH 7.5) [1] | Chemical stability at pH 7.5 after 14 days at 40°C (% degradation) [2] | Chemical stability at pH 7.5 after 28 days at 40°C (% degradation) [2] | Solubility pH 7.5, target conc. =10 mg/mL (measured mg/mL) [3] | SMILES |
| --- | --- | --- | --- | --- | --- | --- | --- |
| >926 | 5.4 nM | > 5000 nM | No | -0.3% | -1.6% | 8.9 mg/mL | CC[C@H](C)[C@H](N)C(=O)N[C@H](C(=O)N[C@@H](CC(C)C)C(=O)N[C@@H](CO)C(=O)N[C@@H](CC(C)C)C(=O)N[C@@H](CC(=O)O)C(=O)N[C@H](C(=O)N1CCC[C@H]1C(=O)N[C@H](C(=O)NCC(=O)N[C@@H](CC(C)C)C(=O)N[C@@H](CC(C)C)C(=O)N[C@@H](CCC(N)=O)C(=O)N[C@H](C(=O)N[C@@H](CC(C)C)C(=O)N[C@@H](CC(C)C)C(=O)N[C@@H](CCC(=O)O)C(=O)N[C@@H](CCC(N)=O)C(=O)N[C@@H](C)C(=O)N[C@@H](CCCNC(=N)N)C(=O)N[C@@H](C)C(=O)N[C@@H](CCCNC(=N)N)C(=O)N[C@@H](C)C(=O)N[C@@H](C)C(=O)N[C@@H](CCCNC(=N)N)C(=O)N[C@@H](CCC(=O)O)C(=O)N[C@@H](CCC(N)=O)C(=O)N[C@@H](C)C(=O)N[C@@H](CCCCNC(=O)COCCOCCNC(=O)COCCOCCNC(=O)CC[C@H](NC(=O)CC[C@H](NC(=O)CCCCCCCCCCCCCCCCCCC(=O)O)C(=O)O)C(=O)O)C(=O)N[C@H](C(=O)N[C@@H](CC(N)=O)C(=O)N[C@H](C(=O)N[C@@H](CCC(=O)O)C(=O)N[C@H](C(=O)N[C@@H](CC(C)C)C(=O)N[C@@H](C)C(=O)N[C@@H](CCC(=O)O)C(=O)N[C@H](C(N)=O)C(C)C)[C@@H](C)CC)[C@@H](C)CC)[C@@H](C)O)[C@@H](C)CC)[C@@H](C)CC)C(C)C)C(C)C [SEQ ID NO: 13] (H-IVLSLDVPIGLLQILLEQARARAAREQAK([AEEA-AEEA-γGlu-γGlu-C20 diacid])TNIEILAEV-NH2) |
| >2000 | 2.5 nM | > 5000 nM | No | – | -23% | 9.8 mg/mL | CC[C@H](C)[C@H](NC(=O)[C@H](CCC(=O)O)NC(=O)[C@H](C)NC(=O)[C@H](CC(N)=O)NC(=O)[C@@H](NC(=O)[C@H](CCCCNC(=O)COCCOCCNC(=O)COCCOCCNC(=O)CC[C@H](NC(=O)CC[C@H](NC(=O)CCCCCCCCCCCCCCCCCCC(=O)O)C(=O)O)C(=O)O)NC(=O)[C@H](C)NC(=O)[C@H](CCC(N)=O)NC(=O)[C@H](CCC(=O)O)NC(=O)[C@H](CCCNC(=N)N)NC(=O)[C@H](C)NC(=O)[C@H](C)NC(=O)[C@H](CCCNC(=N)N)NC(=O)[C@H](C)NC(=O)[C@H](CCCNC(=N)N)NC(=O)[C@H](C)NC(=O)[C@H](CCC(N)=O)NC(=O)[C@H](CCC(=O)O)NC(=O)[C@H](CC(C)C)NC(=O)[C@H](CC(C)C)NC(=O)[C@@H](NC(=O)[C@H](CCC(N)=O)NC(=O)[C@H](CC(C)C)NC(=O)[C@H](CC(C)C)NC(=O)CNC(=O)[C@@H](NC(=O)[C@@H]1CCCN1C(=O)[C@@H](NC(=O)[C@H](CC(=O)O)NC(=O)[C@H](CC(C)C)NC(=O)[C@H](CO)NC(=O)[C@H](CC(C)C)NC(=O)[C@@H](NC(=O)[C@@H]1CCCN1)C(C)C)C(C)C)[C@@H](C)CC)[C@@H](C)CC)[C@@H](C)O)C(=O)N[C@@H](CC(C)C)C(=O)N[C@@H](C)C(=O)N[C@@H](CCC(=O)O)C(=O)N[C@H](C(N)=O)C(C)C [SEQ ID NO: 7] (H-PVLSLDVPIGLLQILLEQARARAAREQAK([AEEA-AEEA-γGlu-γGlu-C20 diacid])TNAEILAEV-NH2) |
| >4167 | 1.2 nM | > 5000 nM | No | -1.4 / ND % | – | 10 mg/mL | CC[C@H](C)[C@H](NC)C(=O)N[C@H](C(=O)N[C@@H](CC(C)C)C(=O)N[C@@H](CO)C(=O)N[C@@H](CC(C)C)C(=O)N[C@@H](CC(=O)O)C(=O)N[C@H](C(=O)N1CCC[C@H]1C(=O)N[C@H](C(=O)NCC(=O)N[C@@H](CC(C)C)C(=O)N[C@@H](CC(C)C)C(=O)N[C@@H](CCC(N)=O)C(=O)N[C@H](C(=O)N[C@@H](CC(C)C)C(=O)N[C@@H](CC(C)C)C(=O)N[C@@H](CCC(=O)O)C(=O)N[C@@H](CCC(N)=O)C(=O)N[C@@H](C)C(=O)N[C@@H](CCCNC(=N)N)C(=O)N[C@@H](C)C(=O)N[C@@H](CCCNC(=N)N)C(=O)N[C@@H](C)C(=O)N[C@@H](C)C(=O)N[C@@H](CCCNC(=N)N)C(=O)N[C@@H](CCC(=O)O)C(=O)N[C@@H](CCC(N)=O)C(=O)N[C@@H](C)C(=O)N[C@@H](CCCCNC(=O)COCCOCCNC(=O)COCCOCCNC(=O)CC[C@H](NC(=O)CC[C@H](NC(=O)CCCCCCCCCCCCCCCCCCC(=O)O)C(=O)O)C(=O)O)C(=O)NC(C)(C)C(=O)N[C@@H](CC(N)=O)C(=O)N[C@@H](C)C(=O)N[C@@H](CCC(=O)O)C(=O)N[C@H](C(=O)N[C@@H](CC(C)C)C(=O)N[C@@H](C)C(=O)N[C@@H](CCC(=O)O)C(=O)N[C@H](C(N)=O)C(C)C)[C@@H](C)CC)[C@@H](C)CC)[C@@H](C)CC)C(C)C)C(C)C [SEQ ID NO: 20] (H-[NMeI]VLSLDVPIGLLQILLEQARARAAREQAK([AEEA-AEEA-γGlu-γGlu-C20 diacid])[Aib]NAEILAEV-NH2) |
